According to patent US20190153024A1, “NOVEL SALTS AND POLYMORPHS OF SCY-078” (priority 2015, published 2019):

Key:
[1] = Kinetic solubility of trifluoroacetate Types A and B and HCl Type I (alternative procedure: SGF, FaSSIF and FeSSIF alternative media, acetate pH 5.5, phosphate pH 6.0 alternative media); conditions: for Form change: residual solid by XRPD
Description: An alternative media (“FaSSIF alternative media”) was used to study the trifluoroacetate salts (Type A and B) and the HCl Type I salt. More specifically, the media was prepared by weighing 0.17 g of sodium phosphate monobasic (NaH2PO4, anhydrous), 0.021 g of sodium hydroxide, and 0.31 g of sodium chloride into a 50-mL volumetric flask and was dissolve with approximately 48 mL of purified water. The pH was adjusted to exactly 6.5 using 1 M HCl or 1 M NaOH and diluted to volume with purified water. 0.11 g of SIF powder was then added, stirred and sonicated until all the powder was completely dissolved. The solution was equilibrated for 2 hours at RT before use. The solution can be stored at RT for 48 hours or 4° C. for 7 days and should be equilibrated to RT before use
An alternative media (“FeSSIF alternative media”) was used to study the trifluoroacetate salts (Type A and B) and the HCl Type I salt. More specifically, the media was prepared by transferring 0.41 mL of glacial acid and weighing 0.20 g of sodium hydroxide, 0.59 g of sodium chloride into a 50-mL volumetric flask. This was dissolved with approximately 48 mL of purified water. The pH was adjusted to exactly 5.0 using 1 M HCl or 1 M NaOH and diluted to volume with purified water. 0.56 g of SIF powder was added, stirred and sonicated until all the powder is completely dissolved. The solution can be stored at RT for 48 hours or 4° C. for 7 days and should be equilibrated to RT before use.
Acetate Buffer (pH 5.5) Preparation—The acetate buffer (pH 5.5) used for the trifluoroacetate salts (Type A and B) and the HCl Type I salt was prepared by placing 0.60 g sodium acetate (NaC2H3O2.3H2O) in a 100-mL volumetric flask, adding 3 mL of 2 M acetic acid solution, and then adding purified water to volume.
An alternative media (“phosphate (pH 6.0) alternative media”) was used to study the trifluoroacetate salts (Type A and B) and the HCl Type I salt. More specifically, the media was prepared by dissolving 2.72 g of 0.2 M monobasic potassium phosphate (KH2PO4) in purified water, and diluting with purified water t 100 mL. 0.8 g of 0.2 M sodium hydroxide in purified water was diluted with purified water to 100 mL. Then 50 mL of the 0.2 M monobasic potassium phosphate solution was placed in a 200-mL volumetric flask, 5.6 mL of 0.2 M sodium hydroxide solution was added, and then purified water was added to volume.
The trifluoroacetate salts (Type A and B) and the HCl Type I salt were tested using the following alternative procedure. First, 15 mg, 36 mg or 90 mg solid was weighted into a 4-mL plastic tube, and 3 mL of relevant media was added before leaving the suspension on a rolling incubator (25 r/min). For SCF, 90 mg of solid was used. For FaSSIF, acetate buffer (pH 5.5), and phosphate buffer (pH 6.0), 15 mg solid was used. For FeSSIF, 36 mg of solid was used. 1.0 mL aliquot of the suspension was sampled for centrifugation with the supernatant submitted for HPLC and pH measurement and solid for XRPD characterization at 1 hr, 4 hr and/or 24 hrs.
The solubility of trifluoroacetate Type A, Type B and HCl Type I was measured in SGF at ambient temperature. Approximately 90 mg of solid sample was weighted into a 4-mL centrifuge tube, and 3 mL of SGF buffer was added before leaving the suspension on a rolling incubator (25 r/min). 1.0 mL aliquot of the suspension was sampled for centrifugation (10000 rpm, 3 mins) the supernatant was analyzed by HPLC and pH measurement and solid by XRPD characterization at 1 hr, 4 hr and 24 hrs, respectively.
The solubility of trifluoroacetate Type A, Type B and hydrochloride Type I was measured in the FaSSIF alternative media at ambient temperature. Approximately 15 mg of solid sample was weighted into a 4-mL plastic tube, and 3 mL of the media was added before leaving the suspension on a rolling incubator (25 r/min).

[2] = Physical and chemical stability of trifluoroacetate Types A and B and HCl Type I for 1, 2, 4 and 8 weeks; assay type: physicochemical
Description: High Power Liquid Chromatography (HPLC) Method—An Agilent 1260 HPLC with DAD detector was utilized to test solubility or to test purity and stability. […] System suitability was tested by injecting standard solutions five times in each sample sequence, and the relative standard deviation of the peak areas was less than 2%.
Physical and chemical stability evaluation of trifluoroacetate Type A, trifluoroacetate Type B, and HCl Type I was performed at 25° C./60% RH, 40° C./75% RH and 60° C. for 1, 2, 4 and 8 weeks. In the experiments, approximately 20 mg of solid was placed into a 1.5-mL glass vial. The vials were stored under 25° C./60% RH (uncapped), 40° C./75% RH (uncapped) and 60° C. (capped) conditions for 8 weeks. XRPD analysis was then employed to check the crystalline form of the solid, and HPLC was utilized to determine the purity profile at 1, 2, 4 and 8 weeks. […] The solid form change of trifluoroacetate Type A at 2 and 4 weeks was postulated to the air-exposure when the sample was taken out for XRPD characterization.

[3] = Solid form stability on storage under ambient conditions; assay type: physicochemical; conditions: 2 days
Description: SCY-078 Citrate Type E: SCY-078 citrate Type E was obtained by drying a metastable solvate SCY-078 citrate Type R from MeOH/IPAc.
SCY-078 Citrate Type M: SCY-078 citrate Type M was obtained by storing SCY-078 citrate Type E in ambient conditions for 2 days. […] (onset temperatures) (FIG. 58). […] (FIG. 58).
SCY-078 Trifluoroacetate Type A is highly crystalline as shown in the XRPD (FIG. 85). […] The molar ratio of trifluoroacetate Type A (acid: freebase) was determined to be 1:1 via HPLC-IC confirmation.

[4] = Form change of trifluoroacetate on storage at varying relative humidity; assay type: physicochemical; conditions: storage for 24 hours
Description: To investigate transition relationship of trifluoroacetate Type A and Type B, both samples were stored in chambers with varying relative humidity to monitor any form change. […] Varying temperature (VT)-XRPD of trifluoroacetate Type A was performed.

[5] = 25° C./60% RH (uncapped), 1 week
[6] = 25° C./60% RH (uncapped), 2 weeks
[7] = 25° C./60% RH (uncapped), 4 weeks
[8] = 25° C./60% RH (uncapped), 8 weeks
[9] = 40° C./75% RH (uncapped), 1 week
[10] = 40° C./75% RH (uncapped), 2 weeks
[11] = 40° C./75% RH (uncapped), 4 weeks
[12] = 40° C./75% RH (uncapped), 8 weeks

CC(C)[C@@H](C)[C@@]1(C)CC[C@]2(C)[C@H]3CC[C@@H]4[C@@]5(COC[C@]4(C)[C@@H](OC[C@](C)(N)C(C)(C)C)[C@H](n4ncnc4-c4ccncc4)C5)C3=CC[C@@]2(C)[C@@H]1C(=O)O.O=C(O)C(F)(F)F [SCY-078 Trifluoroacetate Type A]
form change of residual solid in FaSSIF alternative media ([1]; FaSSIF alternative media, ambient temperature, listed as trifluoroacetate Type A): no form change was observed
form change of residual solid in FeSSIF alternative media ([1]; FeSSIF alternative media, ambient temperature, listed as Trifluoroacetate Type A): converted to Type B
form change of residual solid in SGF ([1]; SGF, ambient temperature, listed as trifluoroacetate Type A): no form change was observed
solubility in acetate buffer (comparison) ([1]; acetate buffer pH 5.5, ambient temperature, 4 hr and 24 hrs): higher solubility
form change of residual solid in acetate buffer ([1]; acetate buffer pH 5.5, ambient temperature, listed as Trifluoroacetate Type A): no form change was observed
solubility trend in FeSSIF alternative media ([1]; after an hour): decreasing solubility
solubility in phosphate (pH 6.0) alternative media (comparison) ([1]; phosphate (pH 6.0) alternative media, ambient temperature, 4 hr and 24 hrs): lower solubility
form change of residual solid in phosphate (pH 6.0) alternative media ([1]; phosphate (pH 6.0) alternative media, ambient temperature, listed as Trifluoroacetate Type A): firstly converted to Type B at 4 hrs and back to Type A at 24 hrs
physical and chemical stability ([2]; 25° C./60% RH, 40° C./75% RH and 60° C., 8 weeks, listed as trifluoroacetate Type A): physically and chemically stable
solid form stability at ambient conditions [3]: converted to Type B

CC(C)[C@@H](C)[C@@]1(C)CC[C@]2(C)[C@H]3CC[C@@H]4[C@@]5(COC[C@]4(C)[C@@H](OC[C@](C)(N)C(C)(C)C)[C@H](n4ncnc4-c4ccncc4)C5)C3=CC[C@@]2(C)[C@@H]1C(=O)O.O=C(O)CC(O)(CC(=O)O)C(=O)O [SCY-078 citrate Type E]
solid form stability at ambient conditions [3]: not stable

CC(C)[C@@H](C)[C@@]1(C)CC[C@]2(C)[C@H]3CC[C@@H]4[C@@]5(COC[C@]4(C)[C@@H](OC[C@](C)(N)C(C)(C)C)[C@H](n4ncnc4-c4ccncc4)C5)C3=CC[C@@]2(C)[C@@H]1C(=O)O.O=C(O)C(F)(F)F [TFA Type B]
Form change ([1]; FeSSIF alternative media, 1 hr): No
Form change ([1]; FeSSIF alternative media, 4 hrs): No
Form change ([1]; FeSSIF alternative media, 24 hrs): No
Form change ([1]; phosphate (pH 6.0) alternative media, 4 hrs): No
HPLC purity [2, 5]: 99.9%
Solid form [2, 5]: Type A
HPLC purity [2, 6]: 99.9%
Solid form [2, 6]: Type A
HPLC purity [2, 7]: 99.9%
Solid form [2, 7]: Type A
HPLC purity [2, 8]: 99.9%
Solid form [2, 8]: Type A
HPLC purity [2, 9]: 99.9%
Solid form [2, 9]: Type A
HPLC purity [2, 10]: 99.9%
Solid form [2, 10]: Type A
HPLC purity [2, 11]: 99.9%
Solid form [2, 11]: Type A
HPLC purity [2, 12]: 99.9%
Solid form [2, 12]: Type A
HPLC purity ([2]; 60° C. (capped), 1 week): 99.9%
Solid form ([2]; 60° C. (capped), 1 week): Type A
HPLC purity ([2]; 60° C. (capped), 2 weeks): 99.9%
Solid form ([2]; 60° C. (capped), 2 weeks): Type A
HPLC purity ([2]; 60° C. (capped), 4 weeks): 99.9%
Solid form ([2]; 60° C. (capped), 4 weeks): Type A
HPLC purity ([2]; 60° C. (capped), 8 weeks): 99.9%
Solid form ([2]; 60° C. (capped), 8 weeks): Type A
Initial HPLC purity ([2]; Initial): 99.9%
Form by XRPD after storage ([4]; Relativity Humidity 0%): Type B
Form by XRPD after storage ([4]; Relativity Humidity 22%): Type B
Form by XRPD after storage ([4]; Relativity Humidity 97%): Type A
